{"source": "paper PMC11329928", "about": "“Design, synthesis and structure-activity relationship (SAR) studies of an unusual class of non-cationic fatty amine-tripeptide conjugates as novel synthetic antimicrobial agents” (Frontiers in Pharmacology, 2024)", "key": {"S. pyogenes T membrane [1]": {"system": "S. pyogenes T membrane", "assay": "Membrane depolarization, DiSC3(5)", "type": "cell-based, Streptococcus pyogenes", "details": "S. pyogenes T in BHI, OD550 ≈ 0.2, DiSC3(5) 1 µM, 37°C", "method": "(§1) Permeation and depolarization of S. pyogenes ^T membrane by DICAMs were assayed with the fluorescent probes SYTOX Green and DiSC3(5), respectively, in a Varioskan Flash microplate reader (Thermo Scientific; Spain) using FluoroNunc 96-well plates (Thermo Scientific; Spain). For permeation assays, cells were grown to an OD550 ≈ 0.3, washed once with PBS pH 7.2 (3,800 × g, 7 min, room temperature), and adjusted to a final OD550 ≈ 0.4 (∼10^8 CFU/mL) with the same buffer before mixing in the dark with SYTOX Green (5 µM final concentration). One hundred µL of this suspension was dispensed per plate well and the signal stabilization was monitored for 15 min (λex = 485 nm; λem = 520 nm). Then, 100 µL of two-fold serially diluted lipopeptide samples was added and changes in fluorescence intensity were registered for 60 min at 37°C. SYTOX Green (900 Da) binds to intracellular DNA when the cell membrane is damaged, thereby increasing fluorescence intensity ([Roth et al., 1997]). Positive controls (100% membrane permeabilization) were carried out by adding Titron X-100 (0.01% final concentration) to untreated bacterial samples ([Rathinakumar et al., 2009]). For membrane depolarization assays, 180 µL of an OD550 ≈ 0.2 culture (BHI; ≈ 10^7 CFU/mL) supplemented with DiSC3(5) (1 µM final concentration) was distributed per well, and signal stabilization was registered for 30 min (λex = 622 nm; λem = 670 nm) ([Te Winkel et al., 2016]). Subsequently, 20 µL of a two-fold serial dilution of lipopeptide in culture medium was added, and fluorescence intensity was recorded for 60 min at 37°C. Partition of DiSC3(5) to the surface of polarized cells decreases the probe fluorescence, and its release, caused by membrane depolarization, results in an increase in fluorescence. […] The background signal of controls with bacterial cells without the fluorescent probe, as well as the dye fluorescence in the presence of the tested compounds without bacteria, were also registered. No change in the fluorescence intensity of the probes occurred upon DICAM addition in the absence of bacterial cells."}, "S. pyogenes T membrane [2]": {"system": "S. pyogenes T membrane", "assay": "Membrane permeation, SYTOX Green", "type": "cell-based, Streptococcus pyogenes", "method": "as §1"}, "S. pneumoniae D39": {"system": "S. pneumoniae D39", "assay": "Viability after challenge at mid-exponential (T2) or early stationary (T3) phase", "type": "cell-based, Streptococcus pneumoniae", "details": "S. pneumoniae D39, 50 µM, C+Y, 37°C", "method": "The effect of DICAMs at different phases of culture growth was also investigated. DICAMs (50 μM) were added to cultures in the early exponential phase (OD550 ≈ 0.15; T1), late exponential phase (OD550 ≈ 0.3–0.4; T2), or near the stationary phase of growth (OD550 ≈ 0.5–0.7; T3) and the evolution of OD values was followed at 37°C for at least 2 h. By default, the variation in cell viability was also determined. Negative and positive controls were run in parallel."}, "[3]": {"system": "S. pneumoniae R6 biofilms", "assay": "Killing of preformed biofilms", "type": "cell-based, Streptococcus pneumoniae", "details": "S. pneumoniae R6 biofilm, 1 h, 37°C, plating on blood agar", "method": "Biofilms were prepared as described ([Domenech and García, 2020]). Briefly, S. pneumoniae R6 cells in late exponential growth (OD550 ≈ 0.6; C + Y medium) were pelleted by centrifugation, resuspended in an equal volume of fresh medium, diluted 1/100 (4.5 × 10^6 CFU/mL), and then dispensed (200 µL per well) in 96-well flat-bottom polystyrene plates (Costar 3,595; Corning; Spain). After plate incubation at 34°C for 4.5 h without shaking, bacterial growth (non-adherent cells plus biofilm-forming cells) was determined by measuring the OD550 using a VersaMax microplate absorbance reader. The supernatant (non-adherent cells) was replaced by 200 μL of DICAM 4 (150, 300 or 600 µM) prepared by dilution in sterile water and plate incubation was continued for 1 h at 37°C. Plates were then washed and the biofilms disaggregated in sterile water for viable cell determination in Mueller-Hinton blood agar plates after overnight incubation at 37°C. For the observation of biofilms by CLSM, bacteria were grown on glass-bottomed dishes (WillCo-dish; WillCo Wells, Netherlands) and treated as above, plating 2 mL of the final inoculum per disc and then adding 0.5 mL of DICAM solution. […] Laser intensity and gain were kept the same for all images and they were analyzed using LCS software from Leica. […]"}, "[4]": {"system": "A549, IMR-90 and HeLa cells", "details": "48 h", "protocol": "DICAM’s cytotoxicity was determined employing a modified MTT assay as described elsewhere ([Antúnez-Mojica et al., 2016]) using human lung carcinoma epithelial cells A549, human fetal lung fibroblasts IMR-90, and human HeLa cervix carcinoma cells treated with increasing concentrations of DICAMs (0.8–200 µM range). A549 cells were grown in RPMI 1640 (Gibco; Fisher Scientific, Spain) supplemented with 10% FCS, 2 mM glutamine, 100 IU/mL penicillin and 100 μg/mL streptomycin. IMR-90 and HeLa cells were cultured in DMEM (Gibco; Fisher Scientific, Spain) supplemented with 10% FCS, 2 mM L-glutamine, 1 mM pyruvate, 100 IU/L penicillin, 100 μg/mL streptomycin and 40 μg/mL gentamycin. Cell viability was assessed after 48 h exposure to DICAMs. Vinblastine was used as a positive control. IC50 value is the concentration that gives 50% inhibition of cell growth and was determined using SigmaPlot (Systat) fitting to a Four Parameter Logistic curve."}}, "note": "Structures can show the parent of a compound that is named as a salt.", "data": [{"compound": "CCCCCCCCCCCCCCCCCCNC(=O)[C@H](CCC(=O)O)NC(=O)[C@H]1CCCN1C(=O)[C@H](C)NC(=O)OCc1ccccc1", "note": "[DICAM 3, Cbz-Ala- Pro -Glu-NH-C18H37]", "values": [{"measurement": "Time for dissipation of the transmembrane potential", "setting": "S. pyogenes T membrane [1]", "value": "5 to 10", "unit": "min"}, {"measurement": "Lag before steady increase in SYTOX Green fluorescence", "setting": "S. pyogenes T membrane [2]; S. pyogenes T in PBS pH 7.2, SYTOX Green 5 µM, 37°C, dose-dependent lag", "value": "more than 7 min"}, {"measurement": "Time to plateau of SYTOX green influx (incomplete influx)", "setting": "S. pyogenes T membrane [2]; S. pyogenes T, below 12.5 µM compound", "value": "around 40 min"}]}, {"compound": "CCCCCCCCCCCCCCCCCCNC(=O)[C@H](CCC(=O)O)NC(=O)[C@H]1CCCN1C(=O)[C@H](C)N", "note": "[DICAM 4, Ala- Pro -Glu-NH-C18H37 ·HCl]", "values": [{"measurement": "Death, addition at T3, approximately 3 h", "setting": "S. pneumoniae D39", "value": "≥ 98", "unit": "%"}, {"measurement": "Decrease of viability, addition at T3, approximately 3 h", "setting": "S. pneumoniae D39", "value": "≈ 1.7 log units"}, {"measurement": "Decrease of viability, addition at T2, 30 min", "setting": "S. pneumoniae D39; 30 min incubation", "value": "≈ 3 log units"}, {"measurement": "Decrease of viability, addition at T2, 3 h", "setting": "S. pneumoniae D39; 3 h incubation", "value": "~5", "unit": "log units"}, {"measurement": "Cells killed in preformed biofilms at 300 μM", "setting": "[3]", "value": "~90", "unit": "%"}]}, {"compound": "CCCCCCCCCCCCCCCCCCNC(=O)[C@H](C)NC(=O)[C@H]1CCCN1C(=O)[C@H](C)N", "note": "[DICAM 14, Ala- Pro -Ala-NH-C18H37 · HCl]", "values": [{"measurement": "IC50", "setting": "[4]", "value": 7.3, "unit": "µM"}]}, {"compound": "CCCCCCCCCCCCCCCCCCNC(=O)[C@H](CCC(=O)O)NC(=O)[C@H]1CCCN1C(=O)[C@H](CCC(=O)O)NC(=O)OCc1ccccc1", "note": "[DICAM 19, Cbz-Glu- Pro -Glu-NH-C18H37]", "values": [{"measurement": "Time for dissipation of the transmembrane potential", "setting": "S. pyogenes T membrane [1]", "value": "5 to 10", "unit": "min"}]}]}
